Laboratory results taken from US20110201569A1, “Methods For Treating Myocardial Disorders” (priority 2009, published 2011).
Entries after “also recorded” stand apart in the source; their conditions may differ.

Experiments:
Format in all cases: in vivo, mouse
[1] = test system: C57BL/6 mice; assay: Cardiac biometric parameters (left ventricular weight) three days after transverse aortic constriction (TAC) or sham operation
Description: (§1) 11 to 13 week old male C57BL/6 mice were purchased from Charles River (Germany). Mice were housed in individually ventilated pathogen-free cages with free access to water and standard rodent chow. The animals were handled according to the principles of laboratory animal care (NIH publication No. 85-23, revised 1996), and animal procedures were approved by the local committee for animal care.
To allow for repetitive intravenous injections, a venous port was implanted. Mice were anesthetized with isoflurane 2.0 vol % (Forene®, Abbott GmbH, Germany). Body temperature was maintained at 37° C. The jugular vein was exposed and a catheter (outer diameter 0.64 mm, Dow Corning Europe, Wiesbaden, Germany) inserted into the vessel via a small incision. The catheter was secured with a silk thread and tissue adhesive (Histoacryl, Braun, Germany). Finally, the catheter was tunneled subcutaneously and connected to an extracutaneous port through an incision between scapulae.
(§2) The first injection was performed 5 min prior to TAC or sham-operation procedure (described below) and repeated 4, 8, 12, 24, 36, 48 and 60 hrs after surgery. Animals were randomly assigned into two groups, receiving either a tetrasodium salt of the compound of formula 1 (hereinafter “Eritoran tetrasodium”) or placebo. The catheter was flushed with 50 μl 0.9% NaCl before and 100 μl after each injection of 50 μl Eritoran tetrasodium (2.5 mg/ml vehicle; 5 mg/kg bodyweight/application; dosage adopted from Shimamoto et al., Circulation 2006, 114: 1270-1274) or placebo solution.
Treatment groups were separated into two subgroups, undergoing transverse aortic constriction (TAC) or sham operation. Surgery for TAC was achieved as published previously (see, e.g., Baumgarten et al., Circulation 2002, 105: 2192-2197 and Baumgarten et al., Basic Res Cardiol 2006, 101: 427-435). Mice were intubated in a supine position and mechanical ventilation was initiated (MiniVent 845, Hugo Sachs Elektronik, Germany). A left parasternal incision was performed. A suture was passed underneath the aorta and tied down on a 27 Gauge needle, which was immediately removed and allowed to achieve a standardised and previously validated decreased diameter of the aorta. For sham operation the suture was passed underneath the aorta without ligation. For analgesia, mice received a single intraperitoneal injection of 0.065 mg/kg BW buprenorphine.
Three days after TAC or sham operation, the impact on cardiac biometric parameters was investigated. Body weight was registered. Heart and lung were excised, prepared and immediately measured. Total heart weight, left ventricular weight as well as lung weight and tibia length were recorded. Ventricles were snap frozen in liquid nitrogen and kept at −80° C.
(§3) Statistics were calculated using Prism 4.05 (GraphPad Software Inc., CA, USA). All values are expressed as mean (M)±SEM. One-way ANOVA with Newman-Keuls post-hoc testing was performed for statistical analysis with the exception of TIMP and cytokine expression which were analysed with Kruskal-Wallis and Dunn's multiple comparison post-hoc testing Impact of TAC-Eritoran on IL-10 expression was analysed with Two-way ANOVA. Differences between experimental groups were considered to be significant with p<0.05.
Example 2 was completed in a manner similar to Example 1, with minor changes as described below.
With the consent of proper authority (LANUV), 12 week old male C57BL/6-mice were anesthetized with Isofluran (2.0 Vol. %) and a catheter was implanted into the right jugular vein. Afterwards, either transverse aortic constriction (TAC) or a sham operation was performed. In TAC animals, the aortic diameter was reduced by 70% with a 6-0 silk filament. Mice received either the compound of formula (I) or placebo i.v. 5 minutes prior to TAC/sham-operation and 6 h, 12 h, 24 h, 36 h, 48 h and 60 h after surgery. […]

[2] = test system: matrix metalloproteinase-2 (MMP-2); assay: qRT-PCR of MMP-2 mRNA in left ventricle after TAC/sham
Experimental: as §1
(§4) The first injection was performed 5 min prior to TAC or sham-operation procedure (described below) and repeated 4, 8, 12, 24, 36, 48 and 60 hrs after surgery. […]
(§5) Quantitative real-time PCR analysis was completed. […] RNA was dissolved in 100 μl of RNase-free water, and concentration was determined photometrically (absorbance at 260 nm) before storage at −80° C. […]
(§6) Real-time PCR was performed according to the manufacturer's protocol. […] Each sample was measured in triplicate wells and underwent 40 cycles of amplification on an ABI PRISM® Sequence Detection System (Applied Biosystems). CT values were determined with SDS Software 2.2 (Applied Biosystems) and relative quotients (RQ) were calculated following the ΔΔCT method (RQ target gene/GAPDH).
(§7) Statistics were calculated using Prism 4.05 (GraphPad Software Inc., CA, USA). All values are expressed as mean (M)±SEM. […]

[3] = test system: total matrix metalloproteinase (MMP-2+MMP-9); assay: Total MMP mRNA (MMP-2+MMP-9) calculated from qRT-PCR; conditions: Example 1; TAC vs sham within treated groups; three days after surgery
Experimental: as §1, §4, §5, §6, §7

[4] = test system: TIMP-1; assay: qRT-PCR of TIMP-1 mRNA in left ventricle after TAC/sham
Experimental: as §1, §2
Treatment groups were separated into two subgroups, undergoing transverse aortic constriction (TAC) or sham operation. […]
as §5, §6
as §3, with “Differences between experimental groups were considered to be significant with p<0.05.” left out

[5] = test system: TIMP-4; assay: qRT-PCR of TIMP-4 mRNA in left ventricle after TAC/sham
Experimental: as §1, §4, §5, §6, §7

[6] = test system: TNF-α; assay: qRT-PCR of TNF-α mRNA in left ventricle after TAC/sham; conditions: Example 1, TAC, three days after surgery, M ± SEM
Experimental: as §1, §4, §5, §6, §7

[7] = test system: Tristetraprolin (TTP); assay: qRT-PCR of TTP mRNA in left ventricle after TAC/sham; conditions: Example 1, three days after surgery
Experimental: as §1, §4, §5, §6, §7

[8] = test system: TLR4; assay: qRT-PCR of TLR4 mRNA in left ventricle after TAC/sham
Experimental: Statistics were calculated using Prism 4.05 (GraphPad Software Inc., CA, USA). All values are expressed as mean (M)±SEM. One-way ANOVA with Newman-Keuls post-hoc testing was performed for statistical analysis with the exception of TIMP and cytokine expression which were analysed with Kruskal-Wallis and Dunn's multiple comparison post-hoc testing Impact of TAC-Eritoran on IL-10 expression was analysed with Two-way ANOVA. […]

[9] = test system: brain natriuretic peptide (BNP); assay: qRT-PCR of BNP mRNA in left ventricle after TAC/sham; conditions: Example 2; TAC treated vs TAC-placebo
Experimental: as §1, §4, §5, §6, §7

[10] = test system: IL-1β; assay: qRT-PCR of IL-1β mRNA in left ventricle after TAC/sham; conditions: Example 2; TAC treated vs TAC-placebo
Experimental: as §1, §4, §5, §6, §7

[11] = Example 1, TAC vs sham-operated, 5 mg/kg i.v. per application, three days after surgery
[12] = Example 2, TAC treated vs TAC-placebo

## CCCCCC/C=C\CCCCCCCCCC(=O)N[C@H]1[C@H](OC[C@H]2O[C@H](OP(=O)([O-])[O-])[C@H](NC(=O)CC(=O)CCCCCCCCCCC)[C@@H](OCCCCCCCCCC)[C@@H]2O)O[C@H](COC)[C@@H](OP(=O)([O-])[O-])[C@@H]1OCC[C@@H](CCCCCCC)OC.[Na+].[Na+].[Na+].[Na+] [Eritoran tetrasodium]
[1]; [11]
  left ventricular weight/body weight (LVW/BW): did not differ from sham-operated mice
  left ventricular weight/tibia length (LVW/TL): did not differ from sham-operated mice
[1]; Example 1, TAC, 5 mg/kg i.v. per application, three days after surgery
  left ventricular weight (LVW): 81.32 ± 4.21 mg
[1]; Example 1, TAC, 5 mg/kg i.v. per application, three days after surgery, 5 mg/kg
  cardiac hypertrophy after TAC: decreases cardiac hypertrophy after TAC; also recorded: diminished cardiac hypertrophy induced by pressure overload
[2]; Example 1, TAC vs sham within treated groups, three days after surgery
  MMP-2 mRNA level: remained unchanged by aortic banding
[3]
  total MMP mRNA level (MMP-2+MMP-9): remained unchanged by aortic banding
[4]; Example 1, TAC, three days after surgery, RQ target gene/GAPDH
  TIMP-1 mRNA expression: 23.20±14.52
[4]; Example 1, sham operation, three days after surgery, RQ target gene/GAPDH
  TIMP-1 mRNA expression: 1.16±0.40
[5]; Example 1, sham and TAC groups, three days after surgery
  TIMP-4 mRNA expression: no significant differences between groups
[6]
  TNF mRNA level: 1.32±0.19
[7]; TAC
  TTP/TNFα ratio: 0.61±0.33
[7]; sham operation
  TTP/TNFα ratio: 1.40±0.33
[8]; Example 1, TAC, three days after surgery
  TLR4 mRNA expression: no significant effects
[8]; Example 1, sham operation, three days after surgery
  TLR4 mRNA expression: had no effects on the mRNA expression

## CCCCCC/C=C\CCCCCCCCCC(=O)N[C@H]1[C@H](OC[C@H]2O[C@H](OP(=O)(O)O)[C@H](NC(=O)CC(=O)CCCCCCCCCCC)[C@@H](OCCCCCCCCCC)[C@@H]2O)O[C@H](COC)[C@@H](OP(=O)(O)O)[C@@H]1OCC[C@@H](CCCCCCC)OC [compound of formula (I), α-D-Glucopyranose, 3-O-decyl-2-deoxy-6-O-[2-deoxy-3-O-[(3R)-3-methoxydecyl)-6-O-methyl-2-[[(−11Z)-1-oxo-11-octadecenyl)amino]-4-O-phosphono-β-D-glucopyranosyl]-2-[(1,3-dioxotetradecyl)amino]-1-(dihydrogen phosphate)]
[1]; Example 2, TAC, i.v. 5 min prior to and 6-60 h after surgery, three days after surgery
  left ventricle weight (LVW): 81.32 ± 4.2 mg
[1]; Example 2, murine model of transverse aortic constriction (TAC)
  development of cardiac hypertrophy: prevents the development of cardiac hypertrophy
[9]
  BNP mRNA expression: elevated in TAC-placebo mice compared to sham and the TAC groups treated
[2]; [12]
  MMP-2 mRNA expression: higher in the TAC-placebo animals compared to the TAC groups treated
[4]; [12]
  TIMP-1 mRNA expression: higher
[5]; [12]
  TIMP-4 mRNA expression: higher
[10]
  IL-1β mRNA expression: lower
[8]; [12]
  TLR4 mRNA expression: significantly reduced
